Where a name gives a salt, the structure may show the parent alone.
System: human prostate cancer LNCaP cells
Assay: Antiproliferative effect in LNCaP cells (CellTiter-Glo, 6 days)
Format: cell-based
Conditions: 144 h
Method: In this experiment, the inhibitory effect of the test compound on cell proliferation in human prostate cancer LNCaP cells was detected.
The tumor cell lines were cultured in a 37° C., 5% CO2 incubator under the above culture conditions. Regular passage, and cells in logarithmic growth phase were taken for plating.
2. Cell Plating • (1) Cells were stained with trypan blue and viable cells were counted; • (2) the cell concentration was adjusted to an appropriate concentration;
• (3) 90 μL of cell suspension per well was added to the culture plate as shown in the table above, and cell-free culture medium was added to the blank control well; • (4) the culture plate was cultured overnight in a 37° C., 5% CO2 incubator with 100% relative humidity.
Preparation of stock solution storage plate with 400 times the initial concentration of the compound: The compound was serially diluted with DMSO from the highest concentration to the lowest concentration. The solution was prepared as needed each time.
Preparation of Working Solution with 10 Times the Initial Concentration of Compounds and Cell Treatment with Compounds • (1) To a V-bottom 96-well plate was added 78 μL of cell culture medium, and 2 μL of compound was pipetted from a stock solution storage plate with 400 times the initial concentration of the compound and added to the cell culture medium of the 96-well plate. To vehicle control and blank control was added 2 μL of DMSO. After the compound or DMSO was added, blowing with a pipette and mixing well were carried out. • (2) Administration: 10 μL of a working solution with 10 times the initial concentration of the compound was added to the cell culture plate. To vehicle control and blank control was added 10 μL of DMSO-cell culture medium mixture. • (3) The 96-well plate was returned to the incubator and cultured for 6 days.
The following steps were performed according to the instructions of Promega CellTiter-Glo luminescent cell viability assay kit (Promega-G7573). • (1) CellTiter-Glo buffer was melted and brought to room temperature; • (2) CellTiter-Glo substrate was brought to room temperature; • (3) CellTiter-Glo working solution was prepared by adding 100 mL of CellTiter-Glo buffer to a vial of CellTiter-Glo substrate to dissolve the substrate; • (4) the mixture was slowly vortexed and shaken to be fully dissolved; • (5) the cell culture plate was taken out and left for 30 minutes to equilibrate to room temperature; • (6) 50 μL of CellTiter-Glo working solution was added per well (equal to half the volume of cell culture medium per well). The cell plate was wrapped in aluminum foil to be protected from light; • (7) the culture plate was shaken on an orbital shaker for 2 minutes to induce cell lysis; (8) the culture plate was left at room temperature for 10 minutes to stabilize the luminescent signal; • (9) the luminescent signal was detected on a 2104 EnVision plate reader.
The inhibition rate (IR) of the test compound was calculated using the following formula: IR (%)=(RLU vehicle control−RLU compound)/(RLU vehicle control−RLU blank control)×100%. The inhibition rates of compounds at different concentrations were calculated in Excel, and then GraphPad Prism software was used to plot inhibition curves and calculate relevant parameters, including minimum inhibition rate, maximum inhibition rate, and ICSO.

N#Cc1ccc(O[C@H]2CC[C@H](NC(=O)c3ccc(N4CCC(CN5CCN(c6cccc7c6ccc6occ(C8CCC(=O)NC8=O)c67)CC5)CC4)nn3)CC2)cc1Cl (some centres unmarked) [Hydrochloride of WX015]
IC50: 45 nM

CC1(C)C(=O)N(c2ccc(C#N)c(C(F)(F)F)c2)C(=S)N1c1ccc(OCCN2CCN(CC(=O)Nc3ccc4c(C5CCC(=O)NC5=O)coc4c3)CC2)c(F)c1 (centres unmarked) [WX002]
IC50: 46 nM
